Inhibition of growth data for 21 molecules are collected here from US11155517B2, “4-substituted phenylamine derivatives and their use to protect crops by fighting undesired phytopathogenic micoorganisms” (PI INDUSTRIES LTD., priority 2016, dated 2021).

Common to all, as to assay type: cell-based
The test system of one assay is Alternaria solani. Description: Alternaria solani (early blight of tomato/potato) in vitro test, radial growth on Potato Dextrose Agar. The settings on record: 168 h, 300 ppm, seven days, 25° C., read-out: % control compared to the untreated check (radial growth).
A further assay deals with Rhizoctonia solani. Description: Rhizoctonia solani (rice sheath blight/potato black scurf) in vitro test, radial growth on Potato Dextrose Agar. The note with it: 168 h, 300 ppm, seven days, 25° C., read-out: % control compared to the untreated check (radial growth).
Another assay relates to Pyricularia oryzae. Description: microbe, parasite or virus in culture. The settings on record: 168 h, read-out: % control compared to the untreated check (radial growth).
Another assay relates to Septoria lycopersici. Description: Septoria lycopersici (leaf spot of tomato) in vitro test, radial growth on Potato Dextrose Agar. The note with it: 168 h, seven days, 25° C., read-out: % control compared to the untreated check (radial growth).
The test system of another assay is Botrytis cinerea. Description: Botrytis cinerea (gray mold) in vitro test, radial growth on Potato Dextrose Agar. The settings on record: 168 h, 300 ppm, seven days, 22° C., read-out: % (control) compared to the untreated check (radial growth).
The next assay relates to Colletotrichum capsici. Description: Colletotrichum capsici (anthracnose) in vitro test, radial growth on Potato Dextrose Agar. The note with it: Colletotrichum truncatum, 168 h; 300 ppm; seven days, 25° C.; read-out: % control compared to the untreated check (radial growth).

For `CCN(C)C=Nc1cc(F)c(Cc2cccc(C)c2)cc1F` [Compound 244, N′-(2,5-difluoro-4-(3-methylbenzyl)phenyl)-N-ethyl-N-methylformimidamide], the inhibition of growth at 300 ppm was over 75% in the assay on Alternaria solani; over 80% in the assay on Rhizoctonia solani; over 75% in the assay on Pyricularia oryzae; over 70% with Septoria lycopersici; over 80% with Botrytis cinerea.
Take `CCN(C)C=Nc1cc(C#N)c(Cc2ccccc2C)cc1C` [Compound 248, N′-(5-cyano-2-methyl-4-(2-methylbenzyl)phenyl)-N-ethyl-N-methylformimidamide]: the inhibition of growth at 300 ppm with Alternaria solani is over 75%; in the assay on Rhizoctonia solani, over 80%; with Pyricularia oryzae, over 75%; in the assay with Septoria lycopersici, over 70%; with Botrytis cinerea, over 80%.
With `Cc1cc(N=CN2CCOCC2)c(C)cc1Cc1ccc(F)c(Cl)c1` [Compound 34, N-(4-(3-chloro-4-fluorobenzyl)-2,5-dimethylphenyl)-1-morpholinomethanimine], the inhibition of growth at 300 ppm in the assay on Alternaria solani was over 75%; in the assay with Colletotrichum capsici, over 80%; with Rhizoctonia solani it was over 80%; in the assay with Pyricularia oryzae, over 75%; in the assay with Septoria lycopersici, over 70%.
As for `CCN(C)C=Nc1cc(C)c(Cc2cc(C)cc(C)c2)cc1Cl` [Compound 130, N′-(2-chloro-4-(3,5-dimethylbenzyl)-5-methylphenyl)-N-ethyl-N-methylformimidamide], the inhibition of growth at 300 ppm in the assay on Alternaria solani was over 75%; in the assay with Colletotrichum capsici it was over 80%; in the assay on Rhizoctonia solani it was over 80%; with Pyricularia oryzae, over 75%; in the assay with Septoria lycopersici, over 70%; in the assay on Botrytis cinerea it was over 80%.
On to `CCN(C)C=Nc1cc(C)c(Cc2cc(C(F)(F)F)cc(C(F)(F)F)c2)cc1C` [Compound 106, N′-(4-(3,5-bis(trifluoromethyl)benzyl)-2,5-dimethylphenyl)-N-ethyl-N-methylformimidamide], for which the inhibition of growth at 300 ppm with Alternaria solani is over 75%; with Colletotrichum capsici, over 80%; in the assay with Rhizoctonia solani, over 80%; with Pyricularia oryzae, over 75%; with Septoria lycopersici it was over 70%; in the assay on Botrytis cinerea it was over 80%.
For the molecule `CCN(C)C=Nc1cc(Cl)c(Cc2ccccc2Cl)cc1C` [Compound 255, N′-(5-chloro-4-(2-chlorobenzyl)-2-methylphenyl)-N-ethyl-N-methylformimidamide], the inhibition of growth at 300 ppm in the assay with Alternaria solani is over 75%; with Colletotrichum capsici it was over 80%; with Rhizoctonia solani it was over 80%; with Pyricularia oryzae, over 75%; with Septoria lycopersici, over 70%; in the assay on Botrytis cinerea, over 80%.
Consider `CCN(C)C=Nc1cc(F)c(Cc2ccccc2C)cc1F` [Compound 254, N′-(2,5-difluoro-4-(2-methylbenzyl)phenyl)-N-ethyl-N-methylformimidamide], for which the inhibition of growth at 300 ppm is over 75% in the assay with Alternaria solani; over 80% in the assay on Colletotrichum capsici; over 80% in the assay on Rhizoctonia solani; over 75% in the assay on Pyricularia oryzae; over 70% in the assay with Septoria lycopersici; over 80% with Botrytis cinerea.
Take `CCN(C)C=Nc1cc(C)c(Cc2ccccc2OC(F)(F)F)cc1C` [Compound 116, N′-(2,5-dimethyl-4-(2-(trifluoromethoxy)benzyl)phenyl)-N-ethyl-N-methylformimidamide]: the inhibition of growth at 300 ppm with Alternaria solani was over 75%; in the assay with Colletotrichum capsici it was over 80%; with Rhizoctonia solani, over 80%; in the assay with Pyricularia oryzae, over 75%; in the assay with Septoria lycopersici, over 70%; with Botrytis cinerea it was over 80%.
On to `CCN(C)C=Nc1ccc(Cc2ccccc2F)cc1` [Compound 163, N-ethyl-N′(4-(2-fluorobenzyl)phenyl)-N-methylformimidamide], for which the inhibition of growth at 300 ppm is over 75% in the assay with Alternaria solani; over 80% in the assay with Colletotrichum capsici; over 80% with Rhizoctonia solani; over 75% in the assay with Pyricularia oryzae; over 70% in the assay with Septoria lycopersici; over 80% in the assay with Botrytis cinerea.
With `CCN(C)C=Nc1cc(C)c(Cc2cc(Cl)cc(Cl)c2)cc1Cl` [Compound 21, N′-(2-chloro-4-(3,5-dichlorobenzyl)-5-methylphenyl)-N-ethyl-N-methylformimidamide], the inhibition of growth at 300 ppm was over 75% in the assay on Alternaria solani; over 80% with Colletotrichum capsici; over 80% in the assay with Rhizoctonia solani; over 75% in the assay with Pyricularia oryzae; over 80% in the assay with Botrytis cinerea.
In the case of `CCN(C)C=Nc1cc(C)c(Cc2cccc(OC(F)(F)F)c2)cc1Cl` [Compound 124, N′-(2-chloro-5-methyl-4-(3-(trifluoromethoxy)benzyl)phenyl)-N-ethyl-N-methylformimidamide], the inhibition of growth at 300 ppm was over 75% in the assay on Alternaria solani; over 80% in the assay on Colletotrichum capsici; over 80% with Rhizoctonia solani; over 75% in the assay on Pyricularia oryzae; over 80% in the assay with Botrytis cinerea.
For the molecule `CCN(C)C=Nc1cc(C)c(Cc2cccc(F)c2Cl)cc1C` [Compound 131, N′-(4-(2-chloro-3-fluorobenzyl)-2,5-dimethylphenyl)-N-ethyl-N-methylformimidamide], the inhibition of growth at 300 ppm in the assay with Alternaria solani is over 75%; in the assay on Colletotrichum capsici, over 80%; with Rhizoctonia solani it was over 80%; in the assay on Pyricularia oryzae, over 75%; in the assay on Septoria lycopersici, over 70%; with Botrytis cinerea it was over 80%.
Consider `CCN(C)C=Nc1cc(C)c(Cc2cccc(F)c2)cc1S(C)(=O)=O` [Compound 216, N-ethyl-N′-(4-(3-fluorobenzyl)-5-methyl-2-(methylsulfonyl)phenyl)-N-methylformimidamide], for which the inhibition of growth at 300 ppm in the assay with Alternaria solani is over 75%; in the assay with Rhizoctonia solani, over 80%; with Pyricularia oryzae, over 75%; with Septoria lycopersici it was over 70%.
Consider `Cc1cc(N=CN2CCCCC2)c(C)cc1Cc1cccc(Br)c1F` [Compound 37, N-(4-(3-bromo-2-fluorobenzyl)-2,5-dimethylphenyl)-1-(piperidin-1-yl)methanimine], for which the inhibition of growth at 300 ppm in the assay on Alternaria solani is over 75%; with Colletotrichum capsici, over 80%; in the assay with Rhizoctonia solani, over 80%; with Pyricularia oryzae, over 75%; with Septoria lycopersici, over 70%; with Botrytis cinerea, over 80%.
`CCN(C)C=Nc1cc(C)c(Cc2c(Cl)cccc2Cl)cc1Cl` [Compound 195, N′-(2-chloro-4-(2,6-dichlorobenzyl)-5-methylphenyl)-N-ethyl-N-methylformimidamide]: the inhibition of growth at 300 ppm is over 75% in the assay on Alternaria solani; over 80% in the assay on Colletotrichum capsici; over 75% in the assay on Pyricularia oryzae; over 70% in the assay with Septoria lycopersici; over 80% in the assay on Botrytis cinerea.
As for `Cc1cc(N(C#N)C=N)c(C)cc1Cc1ccccc1F` [Compound 64, N-cyano-N-(4-(2-fluorobenzyl)-2,5-dimethylphenyl)formimidamide], the inhibition of growth at 300 ppm in the assay with Pyricularia oryzae was over 75%; in the assay on Septoria lycopersici, over 70%.
Regarding `CCN(C)C=Nc1cc(C(F)(F)F)c(Cc2cccc(Cl)c2)cc1F` [Compound 229, N′-(4-(3-chlorobenzyl)-2-fluoro-5-(trifluoromethyl)phenyl)-N-ethyl-N-methylformimidamide], the inhibition of growth at 300 ppm in the assay with Alternaria solani is over 75%; with Rhizoctonia solani, over 80%; in the assay with Pyricularia oryzae, over 75%; with Septoria lycopersici it was over 70%.
`CCN(C)C=Nc1cc(C)c(Cc2ccc(Cl)c(Cl)c2)cc1Cl` [Compound 20, N′-(2-chloro-4-(3,4-dichlorobenzyl)-5-methylphenyl)-N-ethyl-N-methylformimidamide]: the inhibition of growth at 300 ppm with Alternaria solani is over 75%; in the assay with Colletotrichum capsici, over 80%; in the assay with Rhizoctonia solani it was over 80%; with Pyricularia oryzae, over 75%; in the assay on Septoria lycopersici it was over 70%.
For the molecule `CCN(C)C=Nc1cc(F)c(Cc2cccc(Cl)c2)cc1F` [Compound 243, N′-(4-(3-chlorobenzyl)-2,5-difluorophenyl)-N-ethyl-N-methylformimidamide], the inhibition of growth at 300 ppm in the assay on Alternaria solani was over 75%; in the assay on Colletotrichum capsici, over 80%; in the assay with Rhizoctonia solani it was over 80%; in the assay on Pyricularia oryzae it was over 75%; with Septoria lycopersici, over 70%.
Turning to `CCN(C)C=Nc1cc(C(F)(F)F)c(Cc2ccccc2C)cc1F` [Compound 228, N-ethyl-N′-(2-fluoro-4-(2-methylbenzyl)-5-(trifluoromethyl)phenyl)-N-methylformimidamide], the inhibition of growth at 300 ppm was over 75% in the assay on Alternaria solani, over 80% with Rhizoctonia solani, over 75% in the assay with Pyricularia oryzae and over 70% with Septoria lycopersici.
`CCN(C)C=Nc1cc(C)c(Cc2cc(C)cc(F)c2)cc1Cl` [Compound 140, N′-(2-chloro-4-(3-fluoro-5-methylbenzyl)-5-methylphenyl)-N-ethyl-N-methylformimidamide]: the inhibition of growth at 300 ppm in the assay with Alternaria solani is over 75%; in the assay on Colletotrichum capsici, over 80%; in the assay with Rhizoctonia solani, over 80%; in the assay on Pyricularia oryzae, over 75%; in the assay on Botrytis cinerea, over 80%.
